Read-outs that look alike come from different tables or passages of the source.
Biological target: T1, SIRT1 (Homo sapiens, UniProt Q96EB6)
T1 sequence (Q96EB6 1-747): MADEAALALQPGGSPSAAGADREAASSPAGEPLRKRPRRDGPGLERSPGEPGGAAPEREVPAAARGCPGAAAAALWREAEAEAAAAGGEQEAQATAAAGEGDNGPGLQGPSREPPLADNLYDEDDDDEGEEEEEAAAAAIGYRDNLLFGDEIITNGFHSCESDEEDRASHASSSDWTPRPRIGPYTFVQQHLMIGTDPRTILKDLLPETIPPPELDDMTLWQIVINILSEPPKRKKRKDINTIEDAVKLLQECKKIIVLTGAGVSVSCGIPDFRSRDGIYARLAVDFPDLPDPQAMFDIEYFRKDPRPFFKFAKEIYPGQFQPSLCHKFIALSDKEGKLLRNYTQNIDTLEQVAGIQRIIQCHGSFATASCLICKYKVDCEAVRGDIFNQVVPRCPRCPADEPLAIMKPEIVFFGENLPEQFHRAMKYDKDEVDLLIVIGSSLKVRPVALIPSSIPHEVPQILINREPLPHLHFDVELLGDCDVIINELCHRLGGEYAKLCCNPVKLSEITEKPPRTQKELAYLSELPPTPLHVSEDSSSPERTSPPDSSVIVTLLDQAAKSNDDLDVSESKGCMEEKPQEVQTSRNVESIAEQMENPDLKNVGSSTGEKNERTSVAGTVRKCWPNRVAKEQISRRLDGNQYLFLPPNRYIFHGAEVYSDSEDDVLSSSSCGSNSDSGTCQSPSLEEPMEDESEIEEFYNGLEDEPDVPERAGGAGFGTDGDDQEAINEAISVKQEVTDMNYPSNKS
Assay: SIRT1 mass spectrometry (MS) based deacetylation assay; on FOLD ACT. MS: test concentration or dose not given here
Format: biochemical
Settings: for EC50: mass spectrometry assay, read-out: ED50 MS ASSAY

[1] = Sirt1 activators, fold activation as determined by MS
[2] = fold activation of SIRT1, mass spectrometry assay
[3] = fold activation of SIRT1 as determined by MS
[4] = SIRT1 fold activation as determined by MS

SMILES	FOLD ACT. MS [1]	EC50 (Sirt1 activators)	EC50 (SIRT1 activation)	further results
Cc1cc(C(=O)Nc2ccccc2-c2nc3ccncc3s2)n(C(C)(C)C)n1 [Compound 462]		< 5 µM		
O=C(Nc1ccccc1-c1cn2c(CN3CCNCC3)csc2n1)c1cc2ccccc2o1 [Compound 624]	A (A (Fold activation >250%))	< 5 µM		
COc1cc(C(=O)Nc2ccccc2-c2nc3cnccc3s2)cc(OC)c1OC [Compound 319]			< 5 µM	FOLD ACT. MS [2]: B (B (Fold Activation <250%))
COc1ccc(C(=O)Nc2cccc(-c3nc4ncccc4o3)n2)c(OC)c1 [Compound 69]			5 to 50 µM	FOLD ACT. MS [3]: B (B (Fold Activation <250%))
COc1ccc(C(=O)N2CCCN(c3nc4ccccc4o3)CC2)c(OC)c1 [Compound 88]			> 150 µM	
COc1ccc(C(=O)Nc2cc(C(=O)N3CCNCC3)cc(-c3nc4ncccc4o3)c2)cc1OC [Compound 107, 3,4-dimethoxy-N-(3-(oxazolo[4,5-b]pyridin-2-yl)-5-(piperazine-1-carbonyl)phenyl)benzamide]			5 to 50 µM	FOLD ACT. MS [3]: B (B (Fold Activation <250%))
CN(C)Cc1ccc2oc(-c3cccc(NC(=O)c4cccc(N(C)C)c4)c3)nc2n1 [Compound 165]			> 150 µM	FOLD ACT. MS [3]: A (A (Fold activation >250%))
COc1cccc(OC)c1C(=O)Nc1cccc(-c2nc3ccccc3[nH]2)c1 [Compound 126]			5 to 50 µM	FOLD ACT. MS [3]: B (B (Fold Activation <250%))
COc1cc(OC)cc(C(=O)Nc2ccccc2-c2nc3ccncc3o2)c1 [Compound 456]			< 5 µM	FOLD ACT. MS [2]: B (B (Fold Activation <250%))
COc1ccc(C(=O)Nc2ccc(-c3nc4ncccc4s3)cc2)c(OC)c1 [Compound 152]			> 150 µM	
CN(C)c1cccc(C(=O)Nc2cccc(-c3nc4ncccc4o3)n2)c1 [Compound 64]			5 to 50 µM	
O=C(Nc1ccccc1-c1nc2cc(CN3CCOCC3)cnc2s1)c1ccc2c(c1)OCO2 [Compound 683]			5 to 50 µM	FOLD ACT. MS [4]: B (B (Fold Activation <250%))
CN(C)c1ccc(C(=O)Nc2ccccc2-c2nc3cnccc3o2)cc1 [Compound 407]			< 5 µM	FOLD ACT. MS [2]: B (B (Fold Activation <250%))
COc1cc(NC(=N)Nc2cc(-c3nc4ncccc4o3)ccn2)cc(OC)c1OC [Compound 635]	A (A (Fold activation >250%))	> 150 µM		
O=C(Nc1ccccc1-c1nc2ccncc2s1)c1cc(C(F)(F)F)ccc1C(F)(F)F [Compound 596]		< 5 µM		
O=C(Nc1ncccc1-c1cn2c(CN3CCOCC3)csc2n1)c1cnc2ccccc2n1 [Compound 621]	A (A (Fold activation >250%))	< 5 µM		
CN1CCN(C(=O)Cc2csc3nc(-c4ccccc4NC(=O)c4cnc5ccccc5n4)cn23)CC1 [Compound 649]	A (A (Fold activation >250%))	< 5 µM		
COc1cccc(C(=O)Nc2ccccc2-c2nc3cccnc3[nH]2)c1C [Compound 530]	B (B (Fold Activation <250%))	< 5 µM		
COc1cc(C(=O)Nc2ccccc2-c2nc3ccncc3s2)cc(OC)c1OC [Compound 163]			< 5 µM	FOLD ACT. MS [3]: B (B (Fold Activation <250%))
CC(C)(C)c1ccc(S(=O)(=O)Nc2ccccc2-c2nc3ncccc3o2)cc1 [Compound 98]			> 150 µM	
CN(C)c1ccc(C(=O)Nc2cccc(-c3nc4ccncc4o3)c2)cc1 [Compound 431]			5 to 50 µM	FOLD ACT. MS [2]: B (B (Fold Activation <250%))
COc1cc(C(=O)Nc2cc(-c3nc4ncccc4o3)ccn2)ccc1CN1CCN(Cc2ccccc2)CC1 [Compound 643]	B (B (Fold Activation <250%))	5 to 50 µM		
O=C(Nc1ccccc1-c1cn2c(Cn3ccnc3)csc2n1)c1cnc2ccccc2n1 [Compound 745]			< 5 µM	FOLD ACT. MS [4]: A (A (Fold activation >250%))
COc1cc(C(=O)Nc2ccc(-c3nc4cnccc4s3)s2)cc(OC)c1OC [Compound 520]	B (B (Fold Activation <250%))	< 5 µM		
O=C(Nc1ccccc1-c1cn2c(CCN3CCNCC3)csc2n1)c1cnc2ccccc2n1 [Compound 680]	A (A (Fold activation >250%))	< 5 µM		
COc1cc(OC)cc(C(=O)Nc2ccccc2-c2nc3ccc(CN4CCNCC4)nc3s2)c1 [Compound 726]			< 5 µM	FOLD ACT. MS [4]: A (A (Fold activation >250%))
O=C(Nc1ccccc1-c1cn2c(CN3CCNCC3)csc2n1)c1cccc(SC(F)F)c1 [Compound 737]			< 5 µM	FOLD ACT. MS [4]: A (A (Fold activation >250%))
COc1ccc(C(=O)Nc2cccc(-c3nc4ccccc4[nH]3)n2)cc1OC [Compound 260]			< 5 µM	FOLD ACT. MS [2]: A (A (Fold activation >250%))
COc1ccc(C(=O)Nc2ccccc2-c2cn3c(CN4CCOCC4)csc3n2)cc1OC [Compound 209]			5 to 50 µM	FOLD ACT. MS [3]: A (A (Fold activation >250%))
COc1cc(C(=O)Nc2cccc(-c3nc4ccncc4o3)c2)cc(OC)c1OC [Compound 430]			5 to 50 µM	FOLD ACT. MS [2]: A (A (Fold activation >250%))

More lines, main results first:

FOLD ACT. MS [1]	EC50 (Sirt1 activators)	EC50 (SIRT1 activation)	SMILES	further results
B (B (Fold Activation <250%))	> 150 µM		CCn1ccc(C(=O)Nc2cc(-c3nc4ncccc4o3)ccn2)n1 [Compound 641]	
B (B (Fold Activation <250%))	< 5 µM		N#Cc1cccc(C(=O)Nc2ccccc2-c2nc3cc(CN4CCNCC4)cnc3s2)c1 [Compound 592]	
A (A (Fold activation >250%))	< 5 µM		O=C(Nc1ccccc1-c1nc2cc(CN3CCNCC3)cnc2s1)c1cnc2ccccc2n1 [Compound 622]	
		5 to 50 µM	O=C(Nc1ccccc1-c1nc2ccncc2s1)c1cnccn1 [Compound 391]	FOLD ACT. MS [2]: B (B (Fold Activation <250%))
		5 to 50 µM	COc1cc(C(=O)Nc2cncc(-c3nc4ncccc4o3)c2)cc(OC)c1OC [Compound 66]	
B (B (Fold Activation <250%))	> 150 µM		N=C(Nc1ccc(Cl)cc1)Nc1cc(-c2nc3ncccc3o2)ccn1 [Compound 634]	
		> 150 µM	COC(=O)c1cc(NC(=O)c2ccc(OC)c(OC)c2)cc(-c2nc3ncccc3o2)c1 [Compound 136, Methyl 3-(3,4-dimethoxybenzamido)-5-(oxazolo[4,5-b]pyridin-2-yl)benzoate]	
		< 5 µM	COc1cc(C(=O)Nc2ccccc2-c2cn3cc(CN(C)C)sc3n2)cc(OC)c1OC [Compound 179]	FOLD ACT. MS [3]: A (A (Fold activation >250%))
B (B (Fold Activation <250%))	< 5 µM		O=C(Nc1ccccc1-c1cn2c(CN3CCN(Cc4ccccc4)CC3=O)csc2n1)c1cnc2ccccc2n1 [Compound 628]	
A (A (Fold activation >250%))	5 to 50 µM		COc1cc(C(=O)Nc2ccccc2-c2nc3ncccc3o2)ccc1CN(C)C [Compound 630]	
A (A (Fold activation >250%))	5 to 50 µM		COc1cc(C(=O)Nc2ccccc2-c2nc3cccnc3[nH]2)ccc1CN1CCCC1 [Compound 535]	
		5 to 50 µM	O=C(Nc1ccccc1-c1cn2c(CN3CCNCC3)csc2n1)c1ccc2occc2c1 [Compound 338]	FOLD ACT. MS [2]: A (A (Fold activation >250%))
B (B (Fold Activation <250%))	< 5 µM		COc1cc(C(=O)Nc2ccccc2-c2nc3ccccc3[nH]2)ccc1CN1CCCC1 [Compound 587]	
B (B (Fold Activation <250%))	< 5 µM		COc1cc(C(=O)Nc2ccccc2-c2cn3c(CN4CCCC4)csc3n2)cc(OC)c1OC [Compound 620]	
		< 5 µM	CN(C(=O)Nc1ccccc1-c1nc2ccccc2[nH]1)c1ccccc1 [Compound 169]	FOLD ACT. MS [3]: B (B (Fold Activation <250%))
		5 to 50 µM	COc1ccc(C(=O)Nc2ccccc2-c2cn3cccnc3n2)c(OC)c1 [Compound 437]	FOLD ACT. MS [2]: B (B (Fold Activation <250%))
B (B (Fold Activation <250%))	< 5 µM		O=C(Nc1ccccc1-c1nc2cccnc2[nH]1)c1cccc(OC(F)(F)F)c1 [Compound 529]	
		5 to 50 µM	COc1ccc(C(=O)Nc2cccc(-c3cc4cccnc4o3)c2)cc1OC [Compound 192]	FOLD ACT. MS [3]: B (B (Fold Activation <250%))
A (A (Fold activation >250%))	5 to 50 µM		O=C(Nc1ccccc1-c1cn2c(CN3CCNCC3)csc2n1)c1cc2ccccc2s1 [Compound 544]	
		< 5 µM	COc1ccc(C(=O)Nc2ccc(-c3cc4cccnc4o3)cc2)c(OC)c1 [Compound 190]	FOLD ACT. MS [3]: B (B (Fold Activation <250%))
		5 to 50 µM	COc1ccc(C(=O)Nc2ccccc2-c2cccs2)cc1OC [Compound 335]	FOLD ACT. MS [2]: B (B (Fold Activation <250%))
		5 to 50 µM	Cc1ccc2oc(-c3cccc(NC(=O)c4cccc(N(C)C)c4)c3)nc2n1 [Compound 167]	FOLD ACT. MS [3]: B (B (Fold Activation <250%))
